Holding throughout (format): physicochemical
Data set [1] in a line: Absorption maximum of the dye. An excerpt:
(§1) Examples of the compounds according to the invention are listed in Tables 2-6, where the structures as well as the absorption and fluorescence maxima are indicated. The spectra of selected compounds are shown FIGS. 5-18.

Data set [2] can be described thus: Fluorescence quencher property (dye itself not fluorescent). An excerpt: A particular subgroup of the compounds according to the invention is fluorescence quenchers. These dyes are not fluorescent themselves, but can act as acceptors for the emission of fluorescent compounds. A widespread area of use of such quenchers is for instance the measurement of the geometry (distances, size, and arrangement of molecular groups) or the reactivity (enzyme activity, reaction speeds, etc.) using Förster resonance energy transfer (FRET). The fluorescence of the donor can only appear when the distance between donor and acceptor exceeds a critical value. Below this distance, the fluorescence of the donor is quenched by the acceptor (=quencher) which is not fluorescent by itself. An overview of the bioanalytical applications of the FRET technology is provided for example by A. Roda, M. Guardigli, E. Micheline, M. Mirasoli, Nanobioanalytical luminescence: Förster-type energy transfer methods, Anal. Bioanal. Chem. 393, 2009, 109-123.
Examples of quenchers according to the invention are compounds 14, 15, 16 and 17. These rhodamines represent a further development of the dyes designated as “violamines” because of their magenta-colored solutions, see for example H. E. Fierz-David, Künstliche Organische Farbstoffe [Artificial Organic Dyes], Springer-Verlag, Berlin, 1926, p. 276ff. However, also the structure of other dye classes may be modified in this way. Examples according to the invention include compounds 49, 50 and 51 from the class of carbopyronines.

In the next data set the target is T1, streptavidin (Streptomyces avidinii, UniProt P22629).
T1 construct: purchased IBA
T1 sequence (P22629 38-163 limits assumed): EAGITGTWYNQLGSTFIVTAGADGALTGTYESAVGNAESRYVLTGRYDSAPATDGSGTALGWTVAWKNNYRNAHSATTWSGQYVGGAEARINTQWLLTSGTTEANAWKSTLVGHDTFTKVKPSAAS
Kind of data set: Fluorescence quantum yield of the dye after coupling to streptavidin, relative to the uncoupled dye. Conditions: streptavidin conjugate. An excerpt:
The average number of dye molecules per biomolecule is expressed by the “degree of labeling” (DOL). […] Since the dye also absorbs in UV, the (total) absorption measured there must still be corrected with the absorption of the dye at this wavelength in order to obtain the actual biomolecule absorption. For this purpose, with commercial dyes, so-called CF values (correction factor values) are given, which describe the ratio of absorptions of the dye at the longwave maximum and at 260 nm or 280 nm.
From the thus obtained (individual) absorptions of dye and biomolecule in the conjugate, taking into consideration the two extinction coefficients, the quotient is formed, which directly indicates the molecular concentration ratio and thus the mean number of dye molecules per biomolecule (“degree of labeling,” DOL).
The compounds listed in Table 1 belong to the class of rhodamines with the same chromophore system. In an aqueous solution at room temperature they all have a comparably high fluorescence quantum yield of about 90%. […] Thus with established marking procedures, a much better detection reliability is achieved.
2 mg of streptavidin (IBA, content approx. 75%) are dissolved under cautious swirling in a glass vial with 1 ml of PBS buffer (pH 7.4) and 50 μl of a 0.2 M sodium hydrogen carbonate solution, which is set to a pH of 9 with sodium hydroxide. The clear solution has a pH-value of 8.3.
40.5 μl of a solution of 170 μg of compound 7 in 50 μl of dry DMSO are added; this corresponds to a dye-streptavidin ratio of 4:1.
The reaction solution is kept for two hours at room temperature and then kept overnight in the refrigerator at 4° C.
Purification is performed in the usual manner over superfine Sephadex G25 (column length 40 cm, diameter 2.5 cm) with PBS buffer as the eluent. The first colored zone contains the streptavidin conjugate.
The DOL can be calculated from the absorption spectrum of the conjugate fraction by the known procedure.

Data set [3] is described as follows: Lactone or pseudobase formation in aqueous weakly alkaline solution. The following applies: aqueous weakly alkaline solutions; reversible. From the text: Normally such lactones are adequately stabilized only in aprotic solvents such as acetone or chloroform. In protic solvents the carboxyl group is deprotonated and a slightly more short-wave absorbing and fluorescent zwitterion is formed. In the exemplary compounds, however, colorless compounds are formed due to the strong electron attraction of the indicated substituents, due to internal ester formation and the associated interruption of the conjugated system. If the carboxyl group is not free but is present as an ester or tertiary amide, so-called pseudobases are formed, through nucleophilic attack (hydroxide ions etc.) at the central carbon atom, which is stronger positivized by the electron-attracting substituents, which pseudobases are likewise colorless due to the interruption of the conjugated system. Both reactions are reversible; by changing the pH value, the dielectric constant (“polarity”) and/or the capability of hydrogen bridge bonding (“proticity”), the dye can be restored. Therefore such compounds can in principle be used as probes for the properties of their direct environment: Depending on the milieu, the molecules are present in colorless or colored form. Associated therewith is also a sort of fluorogenicity, because the longwave fluorescence appears only in the dye form.

A short description of data set [4]: Fluorescence maximum of the dye. Conditions: solvent PBS pH 7.4.
Source text: as §1

Marks after values point to notes of the source that are not given here.

As for `CC1(C)c2cc(Nc3ccc(S(=O)(=O)O)cc3)ccc2C(c2c(F)c(F)c(SCC(=O)O)c(F)c2F)=c2cc3c(cc21)=[N+](Cc1ccc(S(=O)(=O)O)cc1S(=O)(=O)O)CCC3` [Compound 49], the λabs in data set [1] (solvent PBS pH 7.4) was 648^b nm. The “fluorescence quencher (not fluorescent itself, acceptor for emission of fluorescent compounds)” value in data set [2] was “quenchers”.

With `CC1(C)c2cc(Nc3ccc(S(=O)(=O)O)cc3)ccc2C(c2c(F)c(F)c(SCC(=O)O)c(F)c2F)=c2cc3c(cc21)=[N+](Cc1ccc(S(=O)(=O)O)cc1S(=O)(=O)O)C(C)(C)CC3CS(=O)(=O)O` (centres unmarked) [Compound 51], in data set [1] (solvent PBS pH 7.4), the λabs was 650^b nm. In data set [2], the “fluorescence quencher (not fluorescent itself, acceptor for emission of fluorescent compounds)” value was “quenchers”.

Consider `CN(CCCC(=O)O)C(=O)c1ccccc1-c1c2cc(S(=O)(=O)O)/c(=N/CCc3ccc(S(=O)(=O)O)cc3S(=O)(=O)O)cc-2oc2cc(NCCc3ccc(S(=O)(=O)O)cc3S(=O)(=O)O)c(S(=O)(=O)O)cc12` [Compound 25], for which the “Fluorescence quantum yield of the dye following coupling to streptavidin in comparison with the uncoupled dye” value (“Fluorescence quantum yield” below) at streptavidin (DOL 2.8, PBS-buffer 25° C.) came to 45%; on streptavidin (DOL 6.7, PBS-buffer 25° C.) it was 35%. In addition, in data set [3], the “formation of colorless lactone or pseudobase” value (“formation” below) was “easily form a lactone or pseudobase”. For the same compound, in data set [1] (solvent PBS pH 7.4), the λabs is given as 539^b nm. The λfl in data set [4] is on record as 560^b nm.

On to `CN(CCCC(=O)O)C(=O)c1ccccc1-c1c2cc(S(=O)(=O)O)/c(=N/CCc3ccc(S(=O)(=O)O)cc3)cc-2oc2cc(NCCc3ccc(S(=O)(=O)O)cc3)c(S(=O)(=O)O)cc12` [Compound 19], for which the “Fluorescence quantum yield” value on streptavidin (DOL 5.6, PBS-buffer 25° C.) is on record as 10%. Further, the “formation” value in data set [3] is “easily form a lactone or pseudobase”. The λabs in data set [1] (solvent water/acetonitrile 1:1) is 537^c nm. In addition, the λfl in data set [4] is 560^b nm.

With `CN(CCCC(=O)O)C(=O)c1ccccc1-c1c2cc/c(=N/CCc3ccc(S(=O)(=O)O)cc3)c(S(=O)(=O)O)c-2oc2c(S(=O)(=O)O)c(NCCc3ccc(S(=O)(=O)O)cc3)ccc12` [Compound 26], the “Fluorescence quantum yield” value at streptavidin (DOL 7.0, PBS-buffer 25° C.) amounted to 8%. Moreover, the λabs in data set [1] (solvent water/acetonitrile 1:1) is 538^c nm. In data set [4], the λfl was 558^b nm.

With `O=C(O)c1ccccc1-c1c2cc(S(=O)(=O)O)/c(=N/c3ccc(S(=O)(=O)O)cc3)cc-2oc2cc(Nc3ccc(S(=O)(=O)O)cc3)c(S(=O)(=O)O)cc12` [Compound 15], the λabs in data set [1] (solvent water/acetonitrile 1:1) is given as 558^c nm. Besides, the “fluorescence quencher (not fluorescent itself, acceptor for emission of fluorescent compounds)” value in data set [2] is “quenchers”.

With `CN(CCCC(=O)NCCCCCC(=O)O)C(=O)c1ccccc1-c1c2cc(S(=O)(=O)O)/c(=N/Cc3ccc(S(=O)(=O)O)cc3S(=O)(=O)O)cc-2oc2cc(NCc3ccc(S(=O)(=O)O)cc3S(=O)(=O)O)c(S(=O)(=O)O)cc12` [Compound 12], on streptavidin (DOL 3.0, PBS-buffer 25° C.), the “Fluorescence quantum yield” value is 27%. The “formation” value in data set [3] is recorded as “easily form a lactone or pseudobase”. In addition, the λabs in data set [1] (solvent water/acetonitrile 1:1) was 536^c nm. For the same compound, in data set [4], the λfl was 555^b nm.

Consider `CN(CCCC(=O)O)C(=O)c1ccccc1-c1c2cc/c(=N\c3ccc(S(=O)(=O)O)cc3)c(S(=O)(=O)O)c-2oc2c(S(=O)(=O)O)c(Nc3ccc(S(=O)(=O)O)cc3)ccc12` [Compound 17], for which the λabs in data set [1] (solvent water/acetonitrile 1:1) is 555^c nm. Besides, the “fluorescence quencher (not fluorescent itself, acceptor for emission of fluorescent compounds)” value in data set [2] is listed as “quenchers”.

With `CN(CCCC(=O)O)C(=O)c1ccccc1-c1c2cc(S(=O)(=O)O)/c(=N/c3ccc(S(=O)(=O)O)cc3)cc-2oc2cc(Nc3ccc(S(=O)(=O)O)cc3)c(S(=O)(=O)O)cc12` [Compound 16], the λabs in data set [1] (solvent water/acetonitrile 1:1) is reported as 566^c nm. In addition, the “fluorescence quencher (not fluorescent itself, acceptor for emission of fluorescent compounds)” value in data set [2] is listed as “quenchers”.

As for `O=C(O)C1CCCN1C(=O)c1ccccc1-c1c2cc(S(=O)(=O)O)/c(=N/Cc3ccc(S(=O)(=O)O)cc3S(=O)(=O)O)cc-2oc2cc(NCc3ccc(S(=O)(=O)O)cc3S(=O)(=O)O)c(S(=O)(=O)O)cc12` (centres unmarked) [Compound 10], the “formation” value in data set [3] is reported as “easily form a lactone or pseudobase”. Moreover, the λabs in data set [1] (solvent water/acetonitrile 1:1) was 534^c nm. In addition, the λfl in data set [4] was 556^b nm.

Take `CN(CCCC(=O)O)C(=O)c1ccccc1-c1c2cc(S(=O)(=O)O)/c(=N/Cc3ccc(S(=O)(=O)O)cc3S(=O)(=O)O)cc-2oc2cc(NCc3ccc(S(=O)(=O)O)cc3S(=O)(=O)O)c(S(=O)(=O)O)cc12` [Compound 6]: the “Fluorescence quantum yield” value at streptavidin (DOL 2.5, PBS-buffer 25° C.) amounted to 42%; at streptavidin (DOL 5.5, PBS-buffer 25° C.) it was 37%. Further, the “formation” value in data set [3] was “easily form a lactone or pseudobase”. In addition, in data set [1] (solvent water/acetonitrile 1:1), the λabs is recorded as 534^c nm. The λfl in data set [4] is reported as 559^b nm.

For the compound `O=C(O)c1ccccc1-c1c2cc/c(=N/c3ccc(S(=O)(=O)O)cc3)cc-2oc2cc(Nc3ccc(S(=O)(=O)O)cc3)ccc12` [Compound 14], in data set [1] (solvent PBS pH 7.4), the λabs is given as 560^b nm. Besides, the “fluorescence quencher (not fluorescent itself, acceptor for emission of fluorescent compounds)” value in data set [2] is recorded as “quenchers”.

Consider `CN(CCCC(=O)O)C(=O)c1ccccc1-c1c2cc(S(=O)(=O)O)/c(=N/CCc3ccc(S(=O)(=O)O)cc3)cc-2oc2cc(N)c(S(=O)(=O)O)cc12` [Compound 20], for which the “formation” value in data set [3] is “easily form a lactone or pseudobase”. Moreover, the λabs in data set [1] (solvent water/acetonitrile 1:1) is on record as 528^c nm. Also, the λfl in data set [4] was 550^b nm.

In the case of `O=C(O)C1CCN(C(=O)c2ccccc2-c2c3cc(S(=O)(=O)O)/c(=N/Cc4ccc(S(=O)(=O)O)cc4S(=O)(=O)O)cc-3oc3cc(NCc4ccc(S(=O)(=O)O)cc4S(=O)(=O)O)c(S(=O)(=O)O)cc23)CC1` [Compound 11], the “formation” value in data set [3] is recorded as “easily form a lactone or pseudobase”. Besides, in data set [1] (solvent water/acetonitrile 1:1), the λabs is 529^c nm. In data set [4], the λfl is on record as 550^b nm.

Take `CC1=CC(C)(C)[N+](Cc2ccc(S(=O)(=O)O)cc2S(=O)(=O)O)=c2cc3c(cc21)=C(c1c(F)c(F)c(SCC(=O)O)c(F)c1F)c1ccc(Nc2ccc(S(=O)(=O)O)cc2)cc1C3(C)C` [Compound 50]: the λabs in data set [1] (solvent PBS pH 7.4) was 669^b nm. For the same compound, the “fluorescence quencher (not fluorescent itself, acceptor for emission of fluorescent compounds)” value in data set [2] is “quenchers”.
